Data reported in US20240425517A1, “NOVEL COMPOUND FOR DEGRADATION OF TARGET PROTEIN OR POLYPEPTIDE BY POLYUBIQUITINATION” (PRAZER THERAPEUTICS INC., priority 2021, published 2024).

Target: T1, BRD4 proteins (Homo sapiens, UniProt O60885)
T1 construct: endogenous in cells; host or cells: MM.1S
Test: Degradation of BRD4 protein in MM.1S cell lines (Western blot densitometry)
Assay type: cell-based
Settings: MM.1S cells, 10 μM, 24 hours
Outline: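 MM.1S cells in RPMI-1640 with 10% FBS were treated with each degrader at 10 μM for 24 h. RIPA lysates were analysed by SDS-PAGE/Western blot with β-actin as reference, and BRD4 band densitometry was scored as reduction <40% (+), 40-<70% (++) or ≥70% (+++).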

SMILES | BRD4 degrading capacity (%)
Cc1sc2c(c1C)C(c1ccc(Cl)cc1)=N[C@@H](CC(=O)NCCCCC(=O)Nc1ccc(C#CCN)c(CO)c1)c1nnc(C)n1-2.Cl [5-9′, (S)—N-(4-(3-aminoprop-1-yn-1-yl)-3-(hydroxymethyl)phenyl)-5-(2-(4-(4-chlorophenyl)-2,3,9-trimethyl-6H-thieno[3,2-f][1,2,4]triazolo[4,3-a][1,4]diazepin-6-yl)acetamido)pentanamide hydrochloride] | ++ (the degrading capacity was reduced by 40% to 70% (exclusive of 70))
COC(=O)c1ccc(OCCCCNC(=O)C[C@@H]2N=C(c3ccc(Cl)cc3)c3c(sc(C)c3C)-n3c(C)nnc32)cc1C#CCN.Cl [5-12′, methyl (S)-2-(3-aminoprop-1-yn-1-yl)-4-(4-(2-(4-(4-chlorophenyl)-2,3,9-trimethyl-6H-thieno[3,2-f][1,2,4]triazolo[4,3-a][1,4]diazepin-6-yl)acetamido)butoxy)benzoate hydrochloride] | +++ (the degrading capacity was reduced by 70% or more)
COC(=O)c1ccc(C(=O)NCCCNC(=O)C[C@@H]2N=C(c3ccc(Cl)cc3)c3c(sc(C)c3C)-n3c(C)nnc32)cc1C#CCN.Cl [5-18′, methyl (S)-2-(3-aminoprop-1-yn-1-yl)-4-((3-(2-(4-(4-chlorophenyl)-2,3,9-trimethyl-6H-thieno[3,2-f][1,2,4]triazolo[4,3-a][1,4]diazepin-6-yl)acetamido)propyl)carbamoyl)benzoate hydrochloride] | +++ (the degrading capacity was reduced by 70% or more)
COC(=O)c1ccc(C(=O)NC2CCN(C(=O)C[C@@H]3N=C(c4ccc(Cl)cc4)c4c(sc(C)c4C)-n4c(C)nnc43)CC2)cc1C#CCN.Cl [5-22′, methyl (S)-2-(3-aminoprop-1-yn-1-yl)-4-((1-(2-(4-(4-chlorophenyl)-2,3,9-trimethyl-6H-thieno[3,2-f][1,2,4]triazolo[4,3-a][1,4]diazepin-6-yl)acetyl)piperidin-4-yl)carbamoyl)benzoate hydrochloride] | +++ (the degrading capacity was reduced by 70% or more)
COC(=O)c1ccc(NC(=O)C2CCN(C(=O)C[C@@H]3N=C(c4ccc(Cl)cc4)c4c(sc(C)c4C)-n4c(C)nnc43)CC2)cc1C#CCN.Cl [5-23′, methyl (S)-2-(3-aminoprop-1-yn-1-yl)-4-(1-(2-(4-(4-chlorophenyl)-2,3,9-trimethyl-6H-thieno[3,2-f][1,2,4]triazolo[4,3-a][1,4]diazepin-6-yl)acetyl)piperidine-4-carboxamido)benzoate hydrochloride] | +++ (the degrading capacity was reduced by 70% or more)
COC(=O)c1ccc(NC(=O)CCNC(=O)C2CCN(C(=O)C[C@@H]3N=C(c4ccc(Cl)cc4)c4c(sc(C)c4C)-n4c(C)nnc43)CC2)cc1C#CCN.Cl [5-25′, methyl (S)-2-(3-aminoprop-1-yn-1-yl)-4-(3-(1-(2-(4-(4-chlorophenyl)-2,3,9-trimethyl-6H-thieno[3,2-f][1,2,4]triazolo[4,3-a][1,4]diazepin-6-yl)acetyl)piperidine-4-carboxamido)propanamido)benzoate hydrochloride] | +++ (the degrading capacity was reduced by 70% or more)
COC(=O)c1ccc(NC(=O)CCCNC(=O)C2CCN(C(=O)C[C@@H]3N=C(c4ccc(Cl)cc4)c4c(sc(C)c4C)-n4c(C)nnc43)CC2)cc1C#CCN.Cl [5-26′, methyl (S)-2-(3-aminoprop-1-yn-1-yl)-4-(4-(1-(2-(4-(4-chlorophenyl)-2,3,9-trimethyl-6H-thieno[3,2-f][1,2,4]triazolo[4,3-a][1,4]diazepin-6-yl)acetyl)piperidine-4-carboxamido)butanamido)benzoate hydrochloride] | ++ (the degrading capacity was reduced by 40% to 70% (exclusive of 70))
COC(=O)c1ccc(C(=O)NCCCNC(=O)C2CCN(C(=O)C[C@@H]3N=C(c4ccc(Cl)cc4)c4c(sc(C)c4C)-n4c(C)nnc43)CC2)cc1C#CCN.Cl [5-27′, methyl (S)-2-(3-aminoprop-1-yn-1-yl)-4-((3-(1-(2-(4-(4-chlorophenyl)-2,3,9-trimethyl-6H-thieno[3,2-f][1,2,4]triazolo[4,3-a][1,4]diazepin-6-yl)acetyl)piperidine-4-carboxamido)propyl)carbamoyl)benzoate hydrochloride] | ++ (the degrading capacity was reduced by 40% to 70% (exclusive of 70))
COC(=O)c1ccc(C#CCNC(=O)C2CCN(C(=O)C[C@@H]3N=C(c4ccc(Cl)cc4)c4c(sc(C)c4C)-n4c(C)nnc43)CC2)cc1C#CCN.Cl [5-28′, methyl (S)-2-(3-aminoprop-1-yn-1-yl)-4-(3-(1-(2-(4-(4-chlorophenyl)-2,3,9-trimethyl-6H-thieno[3,2-f][1,2,4]triazolo[4,3-a][1,4]diazepin-6-yl)acetyl)piperidine-4-carboxamido)prop-1-yn-1-yl)benzoate hydrochloride] | +++ (the degrading capacity was reduced by 70% or more)
COC(=O)c1ccc(N2CCN(CC3CCN(C(=O)C[C@@H]4N=C(c5ccc(Cl)cc5)c5c(sc(C)c5C)-n5c(C)nnc54)CC3)CC2)cc1C#CCN.Cl [5-29′, methyl (S)-2-(3-aminoprop-1-yn-1-yl)-4-(4-((1-(2-(4-(4-chlorophenyl)-2,3,9-trimethyl-6H-thieno[3,2-f][1,2,4]triazolo[4,3-a][1,4]diazepin-6-yl)acetyl)piperidin-4-yl)methyl)piperazin-1-yl)benzoate hydrochloride] | +++ (the degrading capacity was reduced by 70% or more)
COC(=O)c1ccc(N2CCN(C(=O)CCNC(=O)C[C@@H]3N=C(c4ccc(Cl)cc4)c4c(sc(C)c4C)-n4c(C)nnc43)CC2)cc1C#CCN.Cl [5-32′, methyl (S)-2-(3-aminoprop-1-yn-1-yl)-4-(4-(3-(2-(4-(4-chlorophenyl)-2,3,9-trimethyl-6H-thieno[3,2-f][1,2,4]triazolo[4,3-a][1,4]diazepin-6-yl)acetamido)propanoyl)piperazin-1-yl)benzoate hydrochloride] | +++ (the degrading capacity was reduced by 70% or more)
COC(=O)c1cc(N2CCN(C(=O)CCNC(=O)C[C@@H]3N=C(c4ccc(Cl)cc4)c4c(sc(C)c4C)-n4c(C)nnc43)CC2)ccc1C#CCN.Cl [5-33′, methyl (S)-2-(3-aminoprop-1-yn-1-yl)-5-(4-(3-(2-(4-(4-chlorophenyl)-2,3,9-trimethyl-6H-thieno[3,2-f][1,2,4]triazolo[4,3-a][1,4]diazepin-6-yl)acetamido)propanoyl)piperazin-1-yl)benzoate hydrochloride] | ++ (the degrading capacity was reduced by 40% to 70% (exclusive of 70))
COC(=O)c1ccc(NC2CCC(NC(=O)C[C@@H]3N=C(c4ccc(Cl)cc4)c4c(sc(C)c4C)-n4c(C)nnc43)CC2)cc1C#CCN (stereo partly drawn) [5-35′, methyl (S)-2-(3-aminoprop-1-yn-1-yl)-4-((4-(2-(4-(4-chlorophenyl)-2,3,9-trimethyl-6H-thieno[3,2-f][1,2,4]triazolo[4,3-a][1,4]diazepin-6-yl)acetamido)cyclohexyl)amino)benzoate trifluoroacetic acid] | +++ (the degrading capacity was reduced by 70% or more)
